Test: mn = molality of the nth substance listed, in mol/kg
Details: 100 kPa, Liquid, Alternating current cell with electrodes

CCCCCCCCCCCCCCCC[n+]1ccccc1.[Cl-] [cetylpyridinium chloride] + O
electrical conductivity [S/m]
Details | m1 = 0.0002 | m1 = 0.0004 | m1 = 0.0006 | m1 = 0.0008 | m1 = 0.001 | m1 = 0.0012 | m1 = 0.0014 | m1 = 0.0016 | m1 = 0.0018 | m1 = 0.002
293.15 K | 0.00277 | 0.00503 | 0.0073 | 0.00906 | 0.0102 | 0.0112 | 0.012 | 0.0128 | 0.0138 | 0.0145
298.15 K | 0.00283 | 0.00513 | 0.00755 | 0.00982 | 0.0109 | 0.0118 | 0.0128 | 0.0139 | 0.0149 | 0.0158
303.15 K | 0.00302 | 0.00574 | 0.00831 | 0.011 | 0.0134 | 0.0148 | 0.016 | 0.0172 | 0.0184 | 0.0194
308.15 K | 0.00337 | 0.00645 | 0.00954 | 0.0126 | 0.0155 | 0.017 | 0.0183 | 0.0196 | 0.021 | 0.0223

O [water] + CCCCCCCCCCCCCCCC[n+]1ccccc1.[Cl-]
m2 = 0
Details | electrical conductivity [S/m]
293.15 K | 0.0005
298.15 K | 0.00053
303.15 K | 0.00057
308.15 K | 0.00058
